The text below walks through data of patent publication US10336762B2 (priority 2017, dated 2019).

Each structure is given as a SMILES string. A value given as a limit tells only on which side of the number the result lay.

The subject of one assay is TNFα. Description: cells. Format: cell-based, human. The conditions noted are these: Homo sapiens, Monocyte, LPS-stimulated human monocytes, TNFα content; read-out: EC50 TNF.
A further assay concerns the target IRAK4 enzyme (Homo sapiens (Human), UniProt Q9NWZ3). As to the kind of experiment: biochemical. Format: biochemical. The conditions noted are these: IRAK4 enzyme, TR-FRET (HTRF), 500 μM ATP.

IRAK4 enzyme, sequence (Q9NWZ3 whole entry): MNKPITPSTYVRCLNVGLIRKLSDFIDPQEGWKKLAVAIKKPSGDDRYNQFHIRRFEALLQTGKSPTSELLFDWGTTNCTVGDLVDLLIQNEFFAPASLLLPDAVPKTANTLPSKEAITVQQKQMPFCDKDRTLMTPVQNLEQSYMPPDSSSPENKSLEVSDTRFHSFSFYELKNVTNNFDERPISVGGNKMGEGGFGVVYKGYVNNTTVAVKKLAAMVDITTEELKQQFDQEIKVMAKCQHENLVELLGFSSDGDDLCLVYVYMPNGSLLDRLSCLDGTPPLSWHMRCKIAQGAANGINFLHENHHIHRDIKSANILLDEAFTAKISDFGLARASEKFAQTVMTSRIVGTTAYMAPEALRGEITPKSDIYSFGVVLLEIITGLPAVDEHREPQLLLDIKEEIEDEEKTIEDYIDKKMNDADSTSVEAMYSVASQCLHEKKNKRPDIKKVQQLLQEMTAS

For the compound `COc1cncc(Nc2cc(-c3ccc4cc(C#N)cnn34)ncc2C(=O)NC[C@@H](F)C(C)(C)O)c1` [Example 605, (R)-6-(3-cyanopyrrolo[1,2-b]pyridazin-7-yl)-N-(2-fluoro-3-hydroxy-3-methyl-butyl)-4-((5-methoxy-pyridin-3-yl)amino) nicotinamide], the EC50 in the assay on TNFα stood at 24 nM. In addition, the half-inhibitory concentration (IC50) against IRAK4 enzyme is below 1 nM.
The matching figures for `COc1cccc(Nc2cc(-c3ccc4cc(C#N)cnn34)ncc2C(=O)NC[C@@H](F)C(C)(C)O)c1` [Example 606, (R)-6-(3-cyanopyrrolo[1,2-b]pyridazin-7-yl)-N-(2-fluoro-3-hydroxy-3-methylbutyl)-4-((3-methoxyphenyl)amino) nicotinamide]: 33 nM and 1 nM.
As to `CC(C)(O)[C@H](F)CNC(=O)c1cnc(-c2ccc3cc(C#N)cnn23)cc1Nc1cccc(OC(F)F)c1` [Example 608, (R)-6-(3-cyanopyrrolo[1,2-b]pyridazin-7-yl)-4-((3-(difluoromethoxy)phenyl)amino)-N-(2-fluoro-3-hydroxy-3-methylbutyl) nicotinamide], the EC50 with TNFα came out at 123 nM. Moreover, the half-maximal inhibitory concentration (IC50) against IRAK4 enzyme came out at 1 nM.
For `COc1ccc(Nc2cc(-c3ccc4cc(C#N)cnn34)ncc2C(=O)NC[C@@H](F)C(C)(C)O)cc1` [Example 609, (R)-6-(3-cyanopyrrolo[1,2-b]pyridazin-7-yl)-N-(2-fluoro-3-hydroxy-3-methylbutyl)-4-((4-methoxyphenyl)amino) nicotinamide] the same measures were 35 nM and below 1 nM.
For `CC(C)(O)[C@H](F)CNC(=O)c1cnc(-c2ccc3cc(C#N)cnn23)cc1Nc1cncc(C#N)c1` [Example 610, (R)-4-((5-cyanopyridin-3-yl)amino)-6-(3-cyano-pyrrolo[1,2-b]pyridazin-7-yl)-N-(2-fluoro-3-hydroxy-3-methylbutyl)nicotinamide] the same measures were 50 nM and below 1 nM.
The matching figures for `COc1cc(Nc2cc(-c3ccc4cc(C#N)cnn34)ncc2C(=O)NC[C@@H](F)C(C)(C)O)ccc1C#N` [Example 611, (R)-4-((4-cyano-3-methoxy-phenyl)amino)-6-(3-cyanopyrrolo[1,2-b]pyridazin-7-yl)-N-(2-fluoro-3-hydroxy-3-methylbutyl)nicotinamide]: above 10000 nM and 15 nM.
For `CC1(Nc2cc(-c3ccc4cc(C#N)cnn34)ncc2C(=O)NCC#N)COC1` [Example 612, N-(cyanomethyl)-6-(3-cyanopyrrolo[1,2-b]pyridazin-7-yl)-4-((3-methyloxetan-3-yl)amino)nicotinamide], the EC50 in the assay with TNFα stood at 51 nM. On IRAK4 enzyme, the IC50 is below 1 nM.
The matching figures for `COC(=O)NC[C@H]1C[C@H](Nc2cc(-c3ccc4cc(C#N)cnn34)ncc2C(=O)NCC#N)C1` [Example 613, methyl (((1r,3r)-3-((5-((cyanomethyl)carbamoyl)-2-(3-cyanopyrrolo[1,2-b]pyridazin-7-yl)pyridin-4-yl)amino)cyclobutyl)methyl)carbamate]: 15 nM and below 1 nM.
For `CC(C)(O)[C@H](F)CNC(=O)c1cnc(-c2ccc3cc(C#N)cnn23)cc1N[C@H]1C[C@H](CNC(=O)C2CCO2)C1` (some centres unmarked) [Example 614] the same measures were 156 nM and 2 nM.
The matching figures for `COC(=O)N[C@H]1C[C@H](CNc2cc(-c3ccc4cc(C#N)cnn34)ncc2C(=O)NC[C@@H](F)C(C)(C)O)C1` [Example 615, methyl ((1R,3r)-3-(((2-(3-cyanopyrrolo[1,2-b]pyridazin-7-yl)-5-(((R)-2-fluoro-3-hydroxy-3-methylbutyl)carbamoyl)pyridin-4-yl)amino)methyl)cyclobutyl)carbamate]: 46 nM and below 1 nM.
On to `N#Cc1cnn2c(-c3cc(NC45CCC(O)(CC4)CC5)c(C(=O)NCC4CCO4)cn3)ccc2c1` (centres unmarked) [Example 616, 6-(3-cyanopyrrolo[1,2-b]pyridazin-7-yl)-4-((4-hydroxybicyclo[2.2.2]octan-1-yl)amino)-N-(oxetan-2-ylmethyl) nicotinamide], for which, in the assay on TNFα, the EC50 worked out at 144 nM. Besides, the IC50 at IRAK4 enzyme amounted to 2 nM.
As for `N#Cc1cnn2c(-c3cc(NC45CCC(O)(CC4)CC5)c(C(=O)NCC4COC4)cn3)ccc2c1` [Example 617, 6-(3-cyanopyrrolo[1,2-b]pyridazin-7-yl)-4-((4-hydroxybicyclo[2.2.2]octan-1-yl)amino)-N-(oxetan-3-ylmethyl) nicotinamide], the EC50 with TNFα is 144 nM. The same compound yielded an IC50 against IRAK4 enzyme of 2 nM.
For `COC(=O)N[C@]1(C)CC[C@@H](Nc2cc(-c3ccc4cc(C#N)cnn34)ncc2C(=O)NC[C@@H](F)C(C)(C)O)CC1` [Example 618, methyl ((1R,4r)-4-((2-(3-cyanopyrrolo[1,2-b]pyridazin-7-yl)-5-(((R)-2-fluoro-3-hydroxy-3-methylbutyl)carbamoyl)pyridin-4-yl)amino)-1-methylcyclohexyl) carbamate] the same measures were 335 nM and 4 nM.
The matching figures for `COC(=O)N[C@]1(C)CC[C@H](Nc2cc(-c3ccc4cc(C#N)cnn34)ncc2C(=O)NC[C@@H](F)C(C)(C)O)CC1` [Example 619, methyl ((1S,4s)-4-((2-(3-cyanopyrrolo[1,2-b]pyridazin-7-yl)-5-(((R)-2-fluoro-3-hydroxy-3-methylbutyl)carbamoyl)pyridin-4-yl)amino)-1-methylcyclohexyl) carbamate]: 168 nM and 3 nM.
The matching figures for `COC(=O)N(C)C[C@H]1C[C@H](Nc2cc(-c3ccc4cc(C#N)cnn34)ncc2C(=O)NC[C@@H](F)C(C)(C)O)C1` [Example 620, Methyl (((1R,3r)-3-((2-(3-cyanopyrrolo[1,2-b]pyridazin-7-yl)-5-(((R)-2-fluoro-3-hydroxy-3-methylbutyl)carbamoyl)pyridin-4-yl)amino)cyclobutyl)methyl)(methyl)carbamate]: 54 nM and 1 nM.
For the compound `N#Cc1cnn2c(-c3cc(NC45CCC(O)(CC4)CC5)c(C(=O)NCc4ncco4)cn3)ccc2c1` [Example 621, 6-(3-cyanopyrrolo[1,2-b]pyridazin-7-yl)-4-((4-hydroxybicyclo[2.2.2]octan-1-yl)amino)-N-(oxazol-2-ylmethyl) nicotinamide], in the assay with TNFα, the EC50 turned out to be 98 nM. The same compound came in with an IC50 on IRAK4 enzyme of 1 nM.
The matching figures for `CC(C)(O)c1coc(CNC(=O)c2cnc(-c3ccc4cc(C#N)cnn34)cc2NC23CCC(O)(CC2)CC3)n1` [Example 622, 6-(3-cyanopyrrolo[1,2-b]pyridazin-7-yl)-4-((4-hydroxybicyclo[2.2.2]octan-1-yl)amino)-N-((4-(2-hydroxypropan-2-yl)oxazol-2-yl)methyl)nicotinamide]: 407 nM and 2 nM.
The matching figures for `C#CCNC(=O)c1cnc(-c2ccc3cc(C#N)cnn23)cc1NC12CCC(O)(CC1)CC2` [Example 623, 6-(3-cyanopyrrolo[1,2-b]pyridazin-7-yl)-4-((4-hydroxybicyclo[2.2.2]octan-1-yl)amino)-N-(prop-2-yn-1-yl) nicotinamide]: 63 nM and below 1 nM.
Regarding `N#Cc1cnn2c(-c3cc(NC45CCC(O)(CC4)CC5)c(C(=O)NCc4ccc[nH]c4=O)cn3)ccc2c1` [Example 624, 6-(3-cyanopyrrolo[1,2-b]pyridazin-7-yl)-4-((4-hydroxybicyclo[2.2.2]octan-1-yl)amino)-N-((2-oxo-1,2-dihydro-pyridin-3-yl)methyl) nicotinamide], in the assay on TNFα, the EC50 stood at 1640 nM. The same compound showed an IC50 at IRAK4 enzyme of 3 nM.
For `CC(C)(O)[C@H](F)CNC(=O)c1cnc(-c2ccc3cc(C#N)cnn23)cc1Nc1ccc(-c2cnco2)nc1` [Example 625, (R)-6-(3-cyanopyrrolo[1,2-b]pyridazin-7-yl)-N-(2-fluoro-3-hydroxy-3-methylbutyl)-4-((6-(oxazol-5-yl)pyridin-3-yl)amino)nicotinamide] the same measures were 22 nM and below 1 nM.
As for `N#Cc1cnn2c(-c3cc(NC4COC4)c(C(=O)NCC(=O)N4CC(F)(F)C4)cn3)ccc2c1` [Example 626, 6-(3-cyanopyrrolo[1,2-b]pyridazin-7-yl)-N-(2-(3,3-difluoroazetidin-1-yl)-2-oxoethyl)-4-(oxetan-3-ylamino)nicotinamide], the EC50 in the assay on TNFα is 79 nM. This compound displayed an IC50 against IRAK4 enzyme below 1 nM.
The matching figures for `CC(C)(O)[C@H](F)CNC(=O)c1cnc(-c2ccc3cc(C#N)cnn23)cc1Nc1ccc(-c2nnco2)cc1` [Example 627, (R)-4-((4-(1,3,4-oxadiazol-2-yl)phenyl)amino)-6-(3-cyanopyrrolo[1,2-b]pyridazin-7-yl)-N-(2-fluoro-3-hydroxy-3-methylbutyl)nicotinamide]: 30 nM and below 1 nM.
The matching figures for `CC(C)(O)[C@H](F)CNC(=O)c1cnc(-c2ccc3cc(C#N)cnn23)cc1Nc1ccc(-c2cocn2)cc1` [Example 628, (R)-6-(3-cyanopyrrolo[1,2-b]pyridazin-7-yl)-N-(2-fluoro-3-hydroxy-3-methyl-butyl)-4-((4-(oxazol-4-yl)phenyl)amino) nicotinamide]: 26 nM and below 1 nM.
Take `Cc1ncoc1-c1ccc(Nc2cc(-c3ccc4cc(C#N)cnn34)ncc2C(=O)NC[C@@H](F)C(C)(C)O)cc1` [Example 629, (R)-6-(3-cyanopyrrolo[1,2-b]pyridazin-7-yl)-N-(2-fluoro-3-hydroxy-3-methylbutyl)-4-((4-(4-methyloxazol-5-yl)phenyl)amino)nicotinamide]: the EC50 in the assay with TNFα was 22 nM. On IRAK4 enzyme, this compound came in with an IC50 below 1 nM.
As to `CC(C)(O)[C@H](F)CNC(=O)c1cnc(-c2ccc3cc(C#N)cnn23)cc1N[C@H]1CC[C@H](c2cnco2)CC1` [Example 630, 6-(3-cyanopyrrolo[1,2-b]pyridazin-7-yl)-N-((R)-2-fluoro-3-hydroxy-3-methylbutyl)-4-(((1r,4R)-4-(oxazol-5-yl)cyclohexyl)amino)nicotinamide], in the assay with TNFα, the EC50 was found to be 9 nM. This compound also showed an IC50 at IRAK4 enzyme below 1 nM.
